Laboratory results published in patent US10265307B2, “Thiazolecarboxamides and pyridinecarboxamide compounds useful as Pim kinase inhibitors” (Incyte Corporation, priority 2013, dated 2019).
Where two headings read alike, the source gives them in different places.

How the values were obtained:
Assay type in all cases: biochemical
Pim-1 = Pim-1 (Homo sapiens (Human), UniProt P11309); assay: Pim-1 kinase assay; conditions: 1 mM ATP; read-out: Pim1 IC50
Method: Supplementation of the STOP buffer with beads and stopping the reactions were done under reduced light. Prior to the stopping reactions STOP buffer with beads was pre-incubated for 1 h in the dark at room temperature. After stopping the reactions, plates were incubated for 1 h in the dark at room temperature before reading on a PHERAstar FS plate reader (BMG Labtech) under reduced light.

Pim-2 = Pim-2 (Homo sapiens (Human), UniProt Q9P1W9); assay: Pim-2 kinase assay
Chain of Pim-2 (Q9P1W9 whole entry): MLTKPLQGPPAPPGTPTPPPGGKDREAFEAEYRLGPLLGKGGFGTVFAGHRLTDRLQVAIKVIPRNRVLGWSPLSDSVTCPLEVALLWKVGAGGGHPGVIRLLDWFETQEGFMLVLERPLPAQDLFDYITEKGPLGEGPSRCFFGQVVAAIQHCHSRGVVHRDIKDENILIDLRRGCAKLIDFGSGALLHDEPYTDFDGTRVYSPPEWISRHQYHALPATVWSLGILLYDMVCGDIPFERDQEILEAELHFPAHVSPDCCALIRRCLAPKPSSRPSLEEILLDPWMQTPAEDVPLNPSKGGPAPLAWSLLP
Method: Pim-2 kinase assay-20 μL reactions were run in white 384 well polystyrene plates dotted with 0.8 μL compound/DMSO in the assay buffer (50 mM Tris, pH 7.5, 0.01% Tween-20, 5 mM MgCl2, 0.01% BSA, 5 mM DTT), containing 0.05 μM Fluorescein-labeled CREBtide peptide substrate (Invitrogen PV3508), 1 mM ATP, and 1 nM enzyme (Invitrogen PV3649) for 2 h at 25° C. Reactions were stopped by addition of 10 μL TR-FRET Dilution Buffer (Invitrogen PV3574) with 30 mM EDTA and 1.5 nM LanthaScreen Tb-CREB pSer133 antibody (Invitrogen PV3566). After 30 min. incubation at room temperature, plates were read on a PHERAstar FS plate reader (BMG Labtech).
Although the above in vitro assays are conducted at 1 mM ATP compounds can also be evaluated for potency and in vitro activity against PIM targets utilizing Km conditions, where the concentration of ATP is set to the Km value and the assay is more sensitive to PIM inhibition activity.

Pim-3 = Pim-3 (Homo sapiens (Human), UniProt Q86V86); assay: Pim-3 kinase assay; conditions: 1 mM ATP; read-out: Pim3 IC50
Method: Pim-1 and Pim-3 kinase assays-20 μL reactions were run in white 384 well polystyrene plates dotted with 0.8 μL compound/DMSO in the assay buffer (50 mM Tris, pH 7.5, 0.01% Tween-20, 5 mM MgCl2, 0.01% BSA, 5 mM DTT), containing 0.05 μM Biotin-labeled BAD peptide substrate (AnaSpec 62269), 1 mM ATP, and […] (Pim-1, Invitrogen PV3503) or […] (Pim-3, Millipore 14-738) enzyme for 1 h at 25° C. Reactions were stopped by addition of 10 μL STOP Buffer (150 mM Tris, pH=7.5, 150 mM NaCl, 75 mM EDTA, 0.01% Tween-20, 0.3% BSA) supplemented with Phospho-Bad (Ser112) Antibody (Cell Signaling 9291) diluted 666-fold, and Streptavidin donor beads (PerkinElmer 6760002) along with Protein-A acceptor beads (PerkinElmer 6760137) at 15 μg/mL each. Supplementation of the STOP buffer with beads and stopping the reactions were done under reduced light. Prior to the stopping reactions STOP buffer with beads was pre-incubated for 1 h in the dark at room temperature. After stopping the reactions, plates were incubated for 1 h in the dark at room temperature before reading on a PHERAstar FS plate reader (BMG Labtech) under reduced light.

Chain of Pim-1 (P11309 whole entry): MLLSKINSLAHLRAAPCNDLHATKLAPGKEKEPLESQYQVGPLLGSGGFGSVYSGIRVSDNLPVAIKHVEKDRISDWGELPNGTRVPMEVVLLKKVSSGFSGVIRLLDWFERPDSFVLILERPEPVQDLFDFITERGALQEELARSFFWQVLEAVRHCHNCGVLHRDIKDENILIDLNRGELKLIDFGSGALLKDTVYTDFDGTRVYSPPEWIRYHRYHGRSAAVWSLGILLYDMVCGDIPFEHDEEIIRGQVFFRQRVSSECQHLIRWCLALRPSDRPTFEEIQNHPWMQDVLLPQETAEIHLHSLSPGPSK

| Structure (SMILES) | IC50 (Pim-1) [µM] | IC50 (Pim-2; 1 mM ATP, read-out: Pim2 IC50) [µM] | IC50 (Pim-3) [µM] | IC50 (Pim-2; Km ATP concentration rather than 1 mM, read-out: Pim2 IC50 at Km ATP concentration) [µM] |
| --- | --- | --- | --- | --- |
| C[C@H]1CN(c2c(NC(=O)c3ccc(F)c(-c4c(F)cccc4F)n3)cnc3c2CCC3O)C[C@@H](N)[C@@H]1O (mixture of isomers) [Example 37, N-{4-[(3R,4R,5S)-3-Amino-4-hydroxy-5-methylpiperidin-1-yl]-7-hydroxy-6,7-dihydro-5H-cyclopenta[b]pyridin-3-yl}-6-(2,6-difluorophenyl)-5-fluoropyridine-2-carboxamide] | ≤ 0.1 | ≤ 0.1 | ≤ 0.1 |  |
| Nc1sc(-c2c(F)cccc2F)nc1C(=O)Nc1cnc2c(c1N1CCC[C@H](N)C1)CCC2O (single isomer, unassigned) [15 (Diastereoisomer 1)] | ≤ 0.1 | ≤ 0.1 | ≤ 0.1 |  |
| Nc1sc(-c2c(F)cccc2F)nc1C(=O)Nc1cnc2c(c1N1CCC[C@H](N)C1)CCC2O (single isomer, unassigned) [15 (Diastereoisomer 2)] | ≤ 0.1 | ≤ 0.1 | ≤ 0.1 |  |
| N[C@H]1CCCN(c2c(NC(=O)c3csc(-c4c(F)cccc4F)n3)cnc3c2CCC3O)C1 (single isomer, unassigned) [16 (Diastereoisomer 1)] | ≤ 0.1 | > 2 | ≤ 0.1 |  |
| N[C@H]1CCCN(c2c(NC(=O)c3csc(-c4c(F)cccc4F)n3)cnc3c2CCC3O)C1 (single isomer, unassigned) [16 (Diastereoisomer 2)] | ≤ 0.1 | > 2 | ≤ 0.1 |  |
| N#CC1CCc2c1ncc(NC(=O)c1nc(-c3c(F)cccc3F)sc1N)c2N1CCC[C@H](N)C1 (single isomer, unassigned) [18 (Diastereoisomer 1)] | ≤ 0.1 | 0.1 to 1 | ≤ 0.1 |  |
| N#CC1CCc2c1ncc(NC(=O)c1nc(-c3c(F)cccc3F)sc1N)c2N1CCC[C@H](N)C1 (single isomer, unassigned) [18 (Diastereoisomer 2)] | ≤ 0.1 | 0.1 to 1 | ≤ 0.1 |  |
| CC1(O)CCc2c1ncc(NC(=O)c1nc(-c3c(F)cccc3F)sc1N)c2N1CCC[C@H](N)C1 (single isomer, unassigned) [19 (Diastereoisomer 1)] | ≤ 0.1 | > 2 | 0.1 to 1 |  |
| CC1(O)CCc2c1ncc(NC(=O)c1nc(-c3c(F)cccc3F)sc1N)c2N1CCC[C@H](N)C1 (single isomer, unassigned) [19 (Diastereoisomer 2)] | ≤ 0.1 | 0.1 to 1 | ≤ 0.1 |  |
| N[C@H]1CCCN(c2c(NC(=O)c3ccc(F)c(-c4c(F)cccc4F)n3)cnc3c2CCC3O)C1 (single isomer, unassigned) [22 (Diastereoisomer 1)] | ≤ 0.1 | 0.1 to 1 | ≤ 0.1 |  |
| N[C@H]1CCCN(c2c(NC(=O)c3ccc(F)c(-c4c(F)cccc4F)n3)cnc3c2CCC3O)C1 (single isomer, unassigned) [22 (Diastereoisomer 2)] | ≤ 0.1 | ≤ 0.1 | ≤ 0.1 |  |
| Nc1cc(F)c(-c2c(F)cccc2F)nc1C(=O)Nc1cnc2c(c1N1CCC[C@H](N)C1)CCC2O (single isomer, unassigned) [23 (Diastereoisomer 1)] | ≤ 0.1 | ≤ 0.1 | ≤ 0.1 |  |
| Nc1cc(F)c(-c2c(F)cccc2F)nc1C(=O)Nc1cnc2c(c1N1CCC[C@H](N)C1)CCC2O (single isomer, unassigned) [23 (Diastereoisomer 2)] | ≤ 0.1 | ≤ 0.1 | ≤ 0.1 |  |
| C[C@H]1CN(c2c(NC(=O)c3ccc(F)c(-c4c(F)cccc4F)n3)cnc3c2CCC3O)C[C@@H](N)[C@@H]1O (single isomer, unassigned) [37 (Diastereoisomer 1)] | ≤ 0.1 | ≤ 0.1 | ≤ 0.1 |  |
| C[C@H]1CN(c2c(NC(=O)c3ccc(F)c(-c4c(F)cccc4F)n3)cnc3c2CCC3O)C[C@@H](N)[C@@H]1O (single isomer, unassigned) [37 (Diastereoisomer 2)] | ≤ 0.1 | ≤ 0.1 | ≤ 0.1 |  |
| Nc1sc(-c2c(F)cccc2F)nc1C(=O)Nc1cnc2c(c1N1C[C@@H](N)C[C@@H](C(F)(F)F)C1)CCC2O (single isomer, unassigned) [44 (Diastereoisomer 1)] | ≤ 0.1 | ≤ 0.1 | ≤ 0.1 |  |

| Structure (SMILES) | IC50 (Pim-1) [µM] | IC50 (Pim-2; 1 mM ATP, read-out: Pim2 IC50) [µM] | IC50 (Pim-3) [µM] | IC50 (Pim-2; Km ATP concentration rather than 1 mM, read-out: Pim2 IC50 at Km ATP concentration) [µM] |
| --- | --- | --- | --- | --- |
| Nc1sc(-c2c(F)cccc2F)nc1C(=O)Nc1cnc2c(c1N1C[C@@H](N)C[C@@H](C(F)(F)F)C1)CCC2O (single isomer, unassigned) [44 (Diastereoisomer 2)] | ≤ 0.1 | ≤ 0.1 | ≤ 0.1 |  |
| C[C@@H]1C[C@H](N)CN(c2c(NC(=O)c3ccc(F)c(-c4c(F)cccc4F)n3)cnc3c2CCC3O)C1 (single isomer, unassigned) [45 (Diastereoisomer 1)] | ≤ 0.1 | ≤ 0.1 | ≤ 0.1 |  |
| C[C@@H]1C[C@H](N)CN(c2c(NC(=O)c3ccc(F)c(-c4c(F)cccc4F)n3)cnc3c2CCC3O)C1 (single isomer, unassigned) [45 (Diastereoisomer 2)] | ≤ 0.1 | ≤ 0.1 | ≤ 0.1 |  |
| C[C@@H]1C[C@H](N)CN(c2c(NC(=O)c3nc(-c4c(F)cccc4F)c(F)cc3N)cnc3c2CCC3O)C1 (single isomer, unassigned) [46 (Diastereoisomer 1)] | ≤ 0.1 | ≤ 0.1 | ≤ 0.1 |  |
| C[C@@H]1C[C@H](N)CN(c2c(NC(=O)c3nc(-c4c(F)cccc4F)c(F)cc3N)cnc3c2CCC3O)C1 (single isomer, unassigned) [46 (Diastereoisomer 2)] | ≤ 0.1 | ≤ 0.1 | ≤ 0.1 |  |
| C[C@@H]1C[C@H](N)CN(c2c(NC(=O)c3nc(-c4c(F)cccc4F)sc3N)cnc3c2CCC3O)C1 (single isomer, unassigned) [47 (Diastereoisomer 1)] | ≤ 0.1 | ≤ 0.1 | ≤ 0.1 |  |
| C[C@@H]1C[C@H](N)CN(c2c(NC(=O)c3nc(-c4c(F)cccc4F)sc3N)cnc3c2CCC3O)C1 (single isomer, unassigned) [47 (Diastereoisomer 2)] | ≤ 0.1 | ≤ 0.1 | ≤ 0.1 |  |
| C[C@H]1CN(c2c(NC(=O)c3nc(-c4c(F)cccc4F)c(F)cc3N)cnc3c2CCC3O)C[C@@H](N)[C@@H]1O (single isomer, unassigned) [48 (Diastereoisomer 1)] | ≤ 0.1 | 0.1 to 1 | ≤ 0.1 |  |
| C[C@H]1CN(c2c(NC(=O)c3nc(-c4c(F)cccc4F)c(F)cc3N)cnc3c2CCC3O)C[C@@H](N)[C@@H]1O (single isomer, unassigned) [48 (Diastereoisomer 2)] | ≤ 0.1 | ≤ 0.1 | ≤ 0.1 |  |
| C[C@H]1CN(c2c(NC(=O)c3nc(-c4c(F)cccc4F)sc3N)cnc3c2CCC3O)C[C@@H](N)[C@@H]1O (single isomer, unassigned) [49 (Diastereoisomer 1)] | ≤ 0.1 | ≤ 0.1 | ≤ 0.1 |  |
| C[C@H]1CN(c2c(NC(=O)c3nc(-c4c(F)cccc4F)sc3N)cnc3c2CCC3O)C[C@@H](N)[C@@H]1O (single isomer, unassigned) [49 (Diastereoisomer 2)] | ≤ 0.1 | ≤ 0.1 | ≤ 0.1 |  |
| CCOc1cc(F)c(-c2nc(C(=O)Nc3cnc4c(c3N3C[C@@H](N)[C@H](O)[C@@H](C)C3)CCC4O)ccc2F)c(F)c1 (single isomer, unassigned) [51 (Diastereoisomer 1)] | ≤ 0.1 | ≤ 0.1 | ≤ 0.1 |  |
| CCOc1cc(F)c(-c2nc(C(=O)Nc3cnc4c(c3N3C[C@@H](N)[C@H](O)[C@@H](C)C3)CCC4O)ccc2F)c(F)c1 (single isomer, unassigned) [51 (Diastereoisomer 2)] | ≤ 0.1 | ≤ 0.1 | ≤ 0.1 |  |
| COc1ccc(F)c(-c2nc(C(=O)Nc3cnc4c(c3N3CCC[C@H](N)C3)CCC4O)c(N)s2)c1F (single isomer, unassigned) [53 (Diastereoisomer 1)] | ≤ 0.1 | ≤ 0.1 | ≤ 0.1 |  |
| N[C@H]1CCCN(c2c(NC(=O)c3csc(-c4c(F)cccc4F)n3)cnc3[nH]ncc23)C1 [compound 35] |  |  |  | 1 to 10 |
